Test results taken from ChEMBL document CHEMBL5465560, “Selectivity Literature for EUbOPEN Chemogenomic Library” (2024).

Columns and labels:
[1] = biological target: Tyrosine-protein kinase Srms (Homo sapiens) (UniProt Q9H3Y6); assay: Selectivity interaction (KinomeScan (DiscoverX)) EUB0001049a SRMS; conditions: at 1 µM
[2] = biological target: T1, Serine/threonine-protein kinase Nek5 (Homo sapiens) (UniProt Q6P3R8); assay: Selectivity interaction (KinomeScan (DiscoverX)) EUB0000666a NEK5; conditions: at 10 µM
T1 sequence (whole entry): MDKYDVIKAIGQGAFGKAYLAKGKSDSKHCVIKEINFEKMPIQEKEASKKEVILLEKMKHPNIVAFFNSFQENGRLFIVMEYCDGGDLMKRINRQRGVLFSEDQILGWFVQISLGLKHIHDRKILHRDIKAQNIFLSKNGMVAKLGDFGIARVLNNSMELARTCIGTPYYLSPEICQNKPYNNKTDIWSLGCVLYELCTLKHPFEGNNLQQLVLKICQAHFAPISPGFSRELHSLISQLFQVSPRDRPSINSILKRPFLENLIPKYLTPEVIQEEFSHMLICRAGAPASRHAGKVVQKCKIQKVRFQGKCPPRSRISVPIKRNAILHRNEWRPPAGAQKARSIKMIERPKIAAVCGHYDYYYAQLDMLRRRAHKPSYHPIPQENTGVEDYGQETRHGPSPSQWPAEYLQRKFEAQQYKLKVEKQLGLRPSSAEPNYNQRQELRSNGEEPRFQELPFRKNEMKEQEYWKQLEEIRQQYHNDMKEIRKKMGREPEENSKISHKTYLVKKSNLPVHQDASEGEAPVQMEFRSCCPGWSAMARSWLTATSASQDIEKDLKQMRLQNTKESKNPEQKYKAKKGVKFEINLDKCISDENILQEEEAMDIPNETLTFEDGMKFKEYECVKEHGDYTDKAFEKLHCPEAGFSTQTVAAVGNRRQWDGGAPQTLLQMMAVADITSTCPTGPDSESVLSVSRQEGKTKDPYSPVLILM

[3] = biological target: LIM domain kinase 1 (Homo sapiens) (UniProt P53667); assay: Selectivity interaction (KinomeScan (DiscoverX)) EUB0001079a LIMK1; conditions: at 1 µM
[4] = biological target: T2, Bone morphogenetic protein receptor type-2 (Homo sapiens) (UniProt Q13873); assay: Selectivity interaction (KinomeScan (DiscoverX)) EUB0000595a BMPR2; conditions: at 10 µM
T2 sequence (whole entry): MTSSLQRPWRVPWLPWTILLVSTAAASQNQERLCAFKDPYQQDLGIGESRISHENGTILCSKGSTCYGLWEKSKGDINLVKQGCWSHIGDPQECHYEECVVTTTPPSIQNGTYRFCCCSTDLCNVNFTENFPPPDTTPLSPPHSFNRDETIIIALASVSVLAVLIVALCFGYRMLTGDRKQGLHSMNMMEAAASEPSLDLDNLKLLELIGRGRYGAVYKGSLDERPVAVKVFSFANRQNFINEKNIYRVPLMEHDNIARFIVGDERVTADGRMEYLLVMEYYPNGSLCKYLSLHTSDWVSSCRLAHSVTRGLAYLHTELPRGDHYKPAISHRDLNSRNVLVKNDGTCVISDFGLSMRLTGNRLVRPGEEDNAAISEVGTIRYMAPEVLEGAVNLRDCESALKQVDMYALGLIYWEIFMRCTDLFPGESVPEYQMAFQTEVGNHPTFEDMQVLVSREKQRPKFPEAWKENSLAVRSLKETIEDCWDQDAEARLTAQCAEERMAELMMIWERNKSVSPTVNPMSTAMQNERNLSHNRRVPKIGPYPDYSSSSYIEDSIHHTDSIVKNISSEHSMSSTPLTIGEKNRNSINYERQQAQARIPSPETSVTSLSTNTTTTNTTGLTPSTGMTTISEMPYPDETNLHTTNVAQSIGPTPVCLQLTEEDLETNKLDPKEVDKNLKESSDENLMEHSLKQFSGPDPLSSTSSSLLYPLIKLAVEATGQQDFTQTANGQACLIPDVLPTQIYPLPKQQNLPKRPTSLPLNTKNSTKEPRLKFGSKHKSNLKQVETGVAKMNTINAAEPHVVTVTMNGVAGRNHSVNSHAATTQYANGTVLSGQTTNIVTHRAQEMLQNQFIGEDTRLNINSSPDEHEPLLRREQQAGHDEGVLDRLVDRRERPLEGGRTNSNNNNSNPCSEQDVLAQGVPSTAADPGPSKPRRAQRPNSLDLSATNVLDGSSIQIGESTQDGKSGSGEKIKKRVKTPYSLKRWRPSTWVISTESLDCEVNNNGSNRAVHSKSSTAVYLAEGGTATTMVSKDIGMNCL

[5] = biological target: T3, Cyclin-dependent kinase-like 5 (Homo sapiens) (UniProt O76039); conditions: at 10 µM
T3 sequence (whole entry): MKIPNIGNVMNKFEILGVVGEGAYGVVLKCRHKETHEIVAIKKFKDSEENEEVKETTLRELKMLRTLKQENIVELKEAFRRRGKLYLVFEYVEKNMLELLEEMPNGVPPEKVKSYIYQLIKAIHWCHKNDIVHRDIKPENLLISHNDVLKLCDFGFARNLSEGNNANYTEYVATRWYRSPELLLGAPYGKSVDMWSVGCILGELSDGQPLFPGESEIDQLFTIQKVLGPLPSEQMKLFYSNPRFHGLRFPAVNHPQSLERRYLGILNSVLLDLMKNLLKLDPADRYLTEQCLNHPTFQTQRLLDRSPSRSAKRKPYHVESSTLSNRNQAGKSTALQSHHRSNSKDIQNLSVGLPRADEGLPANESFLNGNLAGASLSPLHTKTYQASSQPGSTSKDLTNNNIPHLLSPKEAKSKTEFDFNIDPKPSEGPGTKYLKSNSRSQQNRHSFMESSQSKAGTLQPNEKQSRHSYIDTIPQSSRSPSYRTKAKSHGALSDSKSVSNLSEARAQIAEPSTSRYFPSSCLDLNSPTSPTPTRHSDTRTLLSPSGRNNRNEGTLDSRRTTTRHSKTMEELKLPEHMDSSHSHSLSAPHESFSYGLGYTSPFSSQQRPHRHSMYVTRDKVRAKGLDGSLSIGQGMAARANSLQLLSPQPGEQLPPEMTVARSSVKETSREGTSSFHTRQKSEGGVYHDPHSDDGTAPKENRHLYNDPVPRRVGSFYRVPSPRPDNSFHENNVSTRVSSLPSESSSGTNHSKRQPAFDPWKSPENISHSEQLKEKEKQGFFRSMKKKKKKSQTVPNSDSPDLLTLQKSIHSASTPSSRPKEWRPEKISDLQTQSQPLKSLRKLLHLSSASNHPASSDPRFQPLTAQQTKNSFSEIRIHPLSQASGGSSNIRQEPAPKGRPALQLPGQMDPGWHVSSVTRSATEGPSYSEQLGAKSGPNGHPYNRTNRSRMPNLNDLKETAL

[6] = test system: Epidermal growth factor receptor (Homo sapiens), P00533 [UNDEFINED MUTATION]; assay: Selectivity interaction (KinomeScan (DiscoverX)) EUB0000655a EGFR; conditions: at 10 µM
[7] = biological target: Serine/threonine-protein kinase Nek4 (Homo sapiens) (UniProt P51957); assay: Selectivity interaction (KinomeScan (DiscoverX)) EUB0000655a NEK4; conditions: at 10 µM
Chain of Serine/threonine-protein kinase Nek4 (Homo sapiens) (P51957 whole entry, looked up): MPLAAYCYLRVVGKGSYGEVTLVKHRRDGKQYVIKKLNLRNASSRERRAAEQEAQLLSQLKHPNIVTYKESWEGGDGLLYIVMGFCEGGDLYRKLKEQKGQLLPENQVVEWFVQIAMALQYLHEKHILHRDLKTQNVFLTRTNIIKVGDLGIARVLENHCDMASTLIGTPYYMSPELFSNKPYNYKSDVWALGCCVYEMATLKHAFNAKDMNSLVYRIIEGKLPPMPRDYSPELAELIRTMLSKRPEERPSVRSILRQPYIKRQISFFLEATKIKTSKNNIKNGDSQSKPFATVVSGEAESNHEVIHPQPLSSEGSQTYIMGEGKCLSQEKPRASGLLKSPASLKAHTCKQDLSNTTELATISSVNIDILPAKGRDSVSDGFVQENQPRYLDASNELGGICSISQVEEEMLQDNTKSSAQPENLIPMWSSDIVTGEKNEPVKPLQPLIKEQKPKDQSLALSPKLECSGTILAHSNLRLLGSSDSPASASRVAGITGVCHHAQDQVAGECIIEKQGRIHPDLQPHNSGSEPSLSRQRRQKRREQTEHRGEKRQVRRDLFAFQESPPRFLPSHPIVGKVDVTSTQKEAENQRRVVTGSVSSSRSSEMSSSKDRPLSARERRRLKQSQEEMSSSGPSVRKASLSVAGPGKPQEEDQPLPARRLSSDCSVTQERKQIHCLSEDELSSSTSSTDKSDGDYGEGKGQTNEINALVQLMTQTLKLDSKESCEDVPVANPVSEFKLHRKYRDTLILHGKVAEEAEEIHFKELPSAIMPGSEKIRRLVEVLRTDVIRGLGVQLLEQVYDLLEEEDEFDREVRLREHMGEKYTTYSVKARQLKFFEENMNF

Chain of LIM domain kinase 1 (Homo sapiens) (P53667 whole entry, looked up, the tested form may be a part): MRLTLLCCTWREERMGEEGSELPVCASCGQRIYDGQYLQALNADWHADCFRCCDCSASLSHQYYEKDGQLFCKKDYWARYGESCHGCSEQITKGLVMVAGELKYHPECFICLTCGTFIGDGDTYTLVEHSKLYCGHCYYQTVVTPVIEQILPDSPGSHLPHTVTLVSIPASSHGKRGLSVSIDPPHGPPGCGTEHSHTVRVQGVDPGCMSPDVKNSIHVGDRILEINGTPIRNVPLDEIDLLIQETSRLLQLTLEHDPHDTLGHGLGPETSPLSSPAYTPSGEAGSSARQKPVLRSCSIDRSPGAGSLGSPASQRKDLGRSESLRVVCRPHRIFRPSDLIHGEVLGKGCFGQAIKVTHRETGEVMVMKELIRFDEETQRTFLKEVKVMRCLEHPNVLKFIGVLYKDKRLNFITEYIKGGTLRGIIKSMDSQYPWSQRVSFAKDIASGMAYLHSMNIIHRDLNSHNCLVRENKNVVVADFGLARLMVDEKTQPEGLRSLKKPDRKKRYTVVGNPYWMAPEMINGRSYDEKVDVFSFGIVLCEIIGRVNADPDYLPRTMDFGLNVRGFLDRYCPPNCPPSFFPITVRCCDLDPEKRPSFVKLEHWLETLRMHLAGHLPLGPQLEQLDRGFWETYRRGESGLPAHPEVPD
Chain of Tyrosine-protein kinase Srms (Homo sapiens) (Q9H3Y6 whole entry): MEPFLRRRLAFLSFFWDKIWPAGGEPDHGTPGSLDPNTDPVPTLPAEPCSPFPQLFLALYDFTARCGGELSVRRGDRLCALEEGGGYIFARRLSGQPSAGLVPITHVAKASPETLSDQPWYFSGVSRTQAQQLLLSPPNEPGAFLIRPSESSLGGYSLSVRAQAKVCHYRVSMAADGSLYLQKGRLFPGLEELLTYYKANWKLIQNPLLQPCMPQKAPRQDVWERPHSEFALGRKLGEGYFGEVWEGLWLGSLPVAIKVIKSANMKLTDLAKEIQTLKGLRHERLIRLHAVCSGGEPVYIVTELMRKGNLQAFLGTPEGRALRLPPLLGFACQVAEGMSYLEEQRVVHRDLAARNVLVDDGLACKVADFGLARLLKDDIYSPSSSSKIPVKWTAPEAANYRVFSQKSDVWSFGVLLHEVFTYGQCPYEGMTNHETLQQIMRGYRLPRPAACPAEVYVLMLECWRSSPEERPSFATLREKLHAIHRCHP
Chain of Epidermal growth factor receptor (Homo sapiens), P00533 [UNDEFINED MUTATION] (P00533 whole entry, looked up, change not shown): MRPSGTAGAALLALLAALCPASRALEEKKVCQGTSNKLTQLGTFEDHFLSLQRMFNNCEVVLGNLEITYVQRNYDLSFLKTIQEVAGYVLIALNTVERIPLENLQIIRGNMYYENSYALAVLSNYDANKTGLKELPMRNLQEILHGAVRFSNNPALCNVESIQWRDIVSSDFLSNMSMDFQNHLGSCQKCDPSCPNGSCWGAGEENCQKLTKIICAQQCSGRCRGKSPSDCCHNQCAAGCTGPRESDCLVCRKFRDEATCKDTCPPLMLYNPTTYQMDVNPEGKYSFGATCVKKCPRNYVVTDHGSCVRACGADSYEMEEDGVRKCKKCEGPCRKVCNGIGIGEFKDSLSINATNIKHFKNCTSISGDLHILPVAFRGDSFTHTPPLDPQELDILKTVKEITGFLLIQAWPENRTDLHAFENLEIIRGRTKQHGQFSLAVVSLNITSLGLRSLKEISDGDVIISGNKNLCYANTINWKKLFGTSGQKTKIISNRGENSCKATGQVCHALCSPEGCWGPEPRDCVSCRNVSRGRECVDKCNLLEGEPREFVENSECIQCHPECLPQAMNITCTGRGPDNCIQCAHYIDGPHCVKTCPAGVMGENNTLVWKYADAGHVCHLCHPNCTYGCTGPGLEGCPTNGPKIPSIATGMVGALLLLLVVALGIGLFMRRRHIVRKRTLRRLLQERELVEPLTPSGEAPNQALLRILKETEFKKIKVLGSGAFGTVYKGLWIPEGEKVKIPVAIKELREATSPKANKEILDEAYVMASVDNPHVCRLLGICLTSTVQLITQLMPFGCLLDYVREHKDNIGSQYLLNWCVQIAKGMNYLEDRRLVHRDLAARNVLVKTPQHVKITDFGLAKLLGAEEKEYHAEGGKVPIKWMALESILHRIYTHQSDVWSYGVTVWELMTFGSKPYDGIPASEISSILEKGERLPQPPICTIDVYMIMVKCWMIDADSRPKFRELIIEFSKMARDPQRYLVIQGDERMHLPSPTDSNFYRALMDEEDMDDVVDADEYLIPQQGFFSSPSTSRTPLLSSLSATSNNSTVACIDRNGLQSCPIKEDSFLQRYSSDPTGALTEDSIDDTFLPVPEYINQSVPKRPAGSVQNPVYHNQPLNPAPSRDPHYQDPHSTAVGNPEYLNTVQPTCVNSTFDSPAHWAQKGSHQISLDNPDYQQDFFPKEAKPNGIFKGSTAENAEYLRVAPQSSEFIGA

COc1cc(Nc2nc(C)cc(-c3cnn4nc(OC)ccc34)n2)cc(C(F)(F)F)c1
% of control [1]: 66%

O=C(NOC[C@H](O)CO)c1ccc(F)c(F)c1Nc1ccc(I)cc1F
% of control [2]: 78%

Nc1cnc(N2CCc3cc(S(=O)(=O)Nc4c(F)cc(Cl)cc4F)cc(N4CCCC4=O)c32)nc1 [TP-020n]
% of control [3]: 100%

COCC(=O)NC/C=C/c1ccc2ncnc(Nc3ccc(Oc4ccc(C)nc4)c(C)c3)c2c1 [CP-724714]
% of control [4]: 74%

Cc1cc([C@@H](C)Nc2ccccc2C(=O)O)c2nc(N3CCOCC3)cc(=O)n2c1 [AZD-6482]
% of control [5]: 74%

CN(C)CCOc1ccc(-c2nc(-c3ccncc3)c(-c3ccc4c(c3)CC/C4=N\O)[nH]2)cc1
% of control [6]: 92% | % of control [7]: 100%
